Reference: patent US12377104B1, “Methods for treating a fatty liver disease” (Madrigal Pharmaceuticals, Inc., priority 2024, dated 2025)
“And” between values parts separate entries of the source, which are not always exact repeats. Equal entries are not always repeated.

Tested on: adults with biopsy-confirmed NASH
Assay: MAESTRO-NASH: lipids, lipoproteins and lipid particles
Type: in vivo, human
Details: 100 mg; for ApoB, Least Squares Mean % CFB / ApoB, Least Squares Mean % CFB Difference from PBO / LDL-C, Least Squares Mean % CFB / LDL-C, Least Squares Mean % CFB Difference from PBO: baseline LDL-C >100 mg/dL; for Lp(a), LS mean % CFB / Lp(a), LS mean % CFB difference from PBO: baseline Lp(a) >10 nmol/L; for Triglycerides, LS mean % CFB / Triglycerides, LS mean % CFB difference from PBO: baseline triglycerides >150 mg/dL
Procedure: Within the study, we provided analyses based on an analysis of covariance (ANCOVA) model after having performed single imputation for LDL-C as described in the statistical analysis plan (SAP). The ANCOVA model estimated least-squares means using treatment and baseline LDL-C as covariate.
To this end, the Week 24 LDL-C assessment and assessments at any visit in which LDL-C is measured (Weeks 4, 12, 16, 20, 24, 28, 32, 36, 40, 44, 48, and 52) that has been impacted by kit shortage at the prior visit (unavailability of […] (IP) during the 4 weeks preceding the visit due to the COVID-19 pandemic as indicated on the electronic case report form (eCRF)), were considered missing and were imputed from an unaffected assessment at surrounding visits or using data from subjects unaffected by this intercurrent event as described in Section 11.2 of the SAP. In summary, single imputation utilizing adjacent and valid […] measurements were imputed.
For missing lipid data that are still missing after the single imputation approach described, those missing lipid data were imputed using the non-missing lipid values (including the singly imputed data) based on missing at random (MAR)-based (MI). When applying the MAR-based […], data were imputed separately by randomized treatment group and baseline stratification factors.

## CC(C)c1cc(Oc2c(Cl)cc(-n3nc(C#N)c(=O)[nH]c3=O)cc2Cl)n[nH]c1=O [Resmetirom, 2-(3,5-dichloro-4-((5-isopropyl-6-oxo-1,6-dihydropyridazin-3-yl)oxy)phenyl)-3,5-dioxo-2,3,4,5-tetrahydro-1,2,4-triazine-6-carbonitrile]
Wk 24
  Apolipoprotein B level, difference from placebo: −20.2 percentage points
  Apolipoprotein B level, least-squares mean percent change from baseline: −19.8 ± 1.3%
  LDL cholesterol level, difference from placebo: −16.4 percentage points
  LDL cholesterol level, least-squares mean percent change from baseline: −16.3% and −16.3 ± 1.7%
  Lipoprotein(a) level, difference from placebo: −35.1 percentage points
  Triglyceride level, difference from placebo: −19.1 percentage points
Wk 24, baseline lipoprotein(a) >10 nmol per liter
  Lipoprotein(a) level, least-squares mean percent change from baseline: −35.9 ± 4.0%
Wk 24, baseline triglyceride >150 mg per deciliter
  Triglyceride level, least-squares mean percent change from baseline: −21.7 ± 4.3%
Week 24
  ApoB, LS mean % CFB: -19.8%
  ApoB, LS mean % CFB difference from PBO: −20.2%
  ApoCIII, Least Squares Mean % CFB: −14.1%
  ApoCIII, Least Squares Mean % CFB Difference from PBO: −22.2%
  HDL-C, Least Squares Mean % CFB: 2.9%
  HDL-C, Least Squares Mean % CFB Difference from PBO: 1.2%
  LDL-C, LS mean % CFB: −16.3%
  LDL-C, LS mean % CFB difference from PBO: −16.4%
  Non-HDL-C, Least Squares Mean % CFB: −17.7%
  Non-HDL-C, Least Squares Mean % CFB Difference from PBO: −17.9%
  ApoB, Least Squares Mean % CFB: −22.1%
  ApoB, Least Squares Mean % CFB Difference from PBO: −18.4%
  LDL-C, Least Squares Mean % CFB: −20.6%
  LDL-C, Least Squares Mean % CFB Difference from PBO: −14.7%
Week 52
  ApoCIII, Least Squares Mean % CFB: −17.1%
  ApoCIII, Least Squares Mean % CFB Difference from PBO: −26.9%
  HDL particle size, Least Squares Mean % CFB: 0.40%
  HDL particle size, Least Squares Mean % CFB Difference from PBO: 0.10%
  HDL particles, Least Squares Mean % CFB: 2.3%
  HDL particles, Least Squares Mean % CFB Difference from PBO: 0.69%
  HDL-C, Least Squares Mean % CFB: 4.6%
  HDL-C, Least Squares Mean % CFB Difference from PBO: 2.0%
  LDL particle size, Least Squares Mean % CFB: −0.35%
  LDL particle size, Least Squares Mean % CFB Difference from PBO: −0.39%
  LDL particles, Least Squares Mean % CFB: −20.0%
  LDL particles, Least Squares Mean % CFB Difference from PBO: −19.4%
  Large HDL particles, Least Squares Mean % CFB: 4.5%
  Large HDL particles, Least Squares Mean % CFB Difference from PBO: −7.7%
  Large LDL particles, Least Squares Mean % CFB: 55.6%
  Large LDL particles, Least Squares Mean % CFB Difference from PBO: −30.8%
  Large VLDL and chylomicron particles, Least Squares Mean % CFB: −9.1%
  Large VLDL and chylomicron particles, Least Squares Mean % CFB Difference from PBO: −20.2%
  Medium HDL particles, Least Squares Mean % CFB: 130.2%
  Medium HDL particles, Least Squares Mean % CFB Difference from PBO: 65.2%
  Medium VLDL particles, Least Squares Mean % CFB: −27.4%
  Medium VLDL particles, Least Squares Mean % CFB Difference from PBO: −143.2%
  Non-HDL-C, Least Squares Mean % CFB: −22.1%
  Non-HDL-C, Least Squares Mean % CFB Difference from PBO: −21.7%
  Small LDL particles, Least Squares Mean % CFB: 6.6%
  Small LDL particles, Least Squares Mean % CFB Difference from PBO: −15.0%
  Small VLDL particles, Least Squares Mean % CFB: 26.3%
  Small VLDL particles, Least Squares Mean % CFB Difference from PBO: −15.3%
  VLDL and chylomicron particles, Least Squares Mean % CFB: −20.2%
  VLDL and chylomicron particles, Least Squares Mean % CFB Difference from PBO: −28.4%
  VLDL and chylomicron triglycerides, Least Squares Mean % CFB: −17.9%
  VLDL and chylomicron triglycerides, Least Squares Mean % CFB Difference from PBO: −22.8%
  VLDL particle size, Least Squares Mean % CFB: 3.4%
  VLDL particle size, Least Squares Mean % CFB Difference from PBO: 1.4%
  ApoB, Least Squares Mean % CFB: −26.6%
  ApoB, Least Squares Mean % CFB Difference from PBO: −20.1%
  LDL-C, Least Squares Mean % CFB: −27.1%
  LDL-C, Least Squares Mean % CFB Difference from PBO: −17.5%
Week 24
  Lp(a), LS mean % CFB: −35.9%
  Lp(a), LS mean % CFB difference from PBO: 35.1%
  Triglycerides, LS mean % CFB: −21.7%
  Triglycerides, LS mean % CFB difference from PBO: −19.1%
Week 52
  ApoB, LS mean % CFB: -22.3%
  ApoB, LS mean % CFB difference from PBO: −22.9%
  LDL-C, LS mean % CFB: −19.5%
  LDL-C, LS mean % CFB difference from PBO: −19.0%
  Lp(a), LS mean % CFB: −37.5%
  Lp(a), LS mean % CFB difference from PBO: −32.4%
  Triglycerides, LS mean % CFB: −28.4%
  Triglycerides, LS mean % CFB difference from PBO: −24.9%
